The experiment addresses T1, PD-1-Ig binding to PD-L1-TVMV-His (PD-L1-His) (Homo sapiens, UniProt Q9NZQ7).
T1 construct: hPDL1(19-239)-TVMV-His; made in house; host or cells: HEK293T cells
Description: PD-1/PD-L1 Homogenous Time-Resolved Fluorescence (HTRF) binding assay. The conditions noted are these: PD-1-Ig (20 nM) / PD-L1-His (10 nM). The method, boiled down: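 HTRF competition: compound pre-incubated 15 min with PD-L1-His (10 nM final), then PD-1-Ig (20 nM final) added for 15 min in dPBS, 0.1% BSA, 0.05% Tween-20. Detection with Eu-cryptate anti-Ig (1 nM) and APC anti-His (20 nM) antibodies.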

Each structure is given as a SMILES string.

T1 sequence (Q9NZQ7 with tags, fused parts or gaps): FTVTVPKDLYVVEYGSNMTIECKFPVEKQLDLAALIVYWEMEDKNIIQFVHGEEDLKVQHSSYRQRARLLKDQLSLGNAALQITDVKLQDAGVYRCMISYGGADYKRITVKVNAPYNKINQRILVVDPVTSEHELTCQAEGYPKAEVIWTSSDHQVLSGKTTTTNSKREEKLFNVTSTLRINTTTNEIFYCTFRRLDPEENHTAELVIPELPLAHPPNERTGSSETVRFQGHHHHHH

As to `CCCC[C@H]1C(=O)N(C)[C@@H](CCCC)C(=O)N[C@@H](CC(C)C)C(=O)N[C@H](C(N)=O)CNCC(=O)N[C@@H](Cc2ccc(F)cc2)C(=O)N2CCCC[C@H]2C(=O)N[C@@H](CC(N)=O)C(=O)N2CCC[C@H]2C(=O)N[C@@H](Cc2c[nH]cn2)C(=O)N[C@@H](CCC(=O)O)C(=O)N2C[C@H](O)C[C@H]2C(=O)N[C@@H](Cc2c[nH]c3ccccc23)C(=O)N[C@@H](C)C(=O)N[C@@H](Cc2cn(CC(=O)O)c3ccccc23)C(=O)N1C` [Example 9052], the IC50 (commonly the concentration that gives 50% inhibition) (numeric values) worked out at 10 nM.

In turn, `CCCC[C@H]1C(=O)N(C)[C@@H](CCCC)C(=O)N[C@@H](CC(C)C)C(=O)N[C@H](C(N)=O)CNCC(=O)N[C@@H](Cc2ccc(F)cc2)C(=O)N2CCCC[C@H]2C(=O)N[C@@H](CC(N)=O)C(=O)N2CCCC2C(=O)N[C@@H](Cc2c[nH]cn2)C(=O)N[C@@H](CCC(N)=O)C(=O)N2C[C@H](O)C[C@H]2C(=O)N[C@@H](Cc2c[nH]c3ccccc23)C(=O)N[C@@H](C)C(=O)N[C@@H](Cc2cn(CC(=O)O)c3ccccc23)C(=O)N1C` (stereo partly drawn) [Example 9053] had an IC50 (range classes) of 1 to 9.9 nM.

For the molecule `CCCC[C@H]1C(=O)N(C)[C@@H](CCCC)C(=O)N[C@@H](CCC(=O)O)C(=O)N[C@H](C(N)=O)CNCC(=O)N[C@@H](Cc2ccc(O)cc2)C(=O)N2CCCC[C@H]2C(=O)N[C@@H](CC(N)=O)C(=O)N2CCC[C@H]2C(=O)N[C@@H](Cc2c[nH]cn2)C(=O)N[C@@H](CC(=O)O)C(=O)N2C[C@H](O)C[C@H]2C(=O)N[C@@H](Cc2c[nH]c3ccccc23)C(=O)N[C@@H](C)C(=O)N[C@@H](Cc2cn(CC(=O)O)c3ccccc23)C(=O)N1C` [Example 9054], the IC50 (range classes) fell in the range of 1 to 9.9 nM.

As to `CCCC[C@H]1C(=O)N(C)[C@@H](CCCC)C(=O)N[C@@H](CCC(=O)O)C(=O)N[C@H](C(N)=O)CNCC(=O)N[C@@H](Cc2ccc(O)cc2)C(=O)N2CCCC[C@H]2C(=O)N[C@@H](CC(N)=O)C(=O)N2CCC[C@H]2C(=O)N[C@@H](Cc2c[nH]cn2)C(=O)N[C@@H](CCC(=O)O)C(=O)N2C[C@H](O)C[C@H]2C(=O)N[C@@H](Cc2c[nH]c3ccccc23)C(=O)N[C@@H](C)C(=O)N[C@@H](Cc2cn(CC(=O)O)c3ccccc23)C(=O)N1C` [Example 9055], where the note is “range classes”, the IC50 lay within 1 to 9.9 nM.

Molecule `CCCC[C@H]1C(=O)N(C)[C@@H](CCCC)C(=O)N[C@@H](CCC(=O)O)C(=O)N[C@H](C(N)=O)CNCC(=O)N[C@@H](Cc2ccc(O)cc2)C(=O)N2CCCC[C@H]2C(=O)N[C@@H](CC(N)=O)C(=O)N2CCC[C@H]2C(=O)N[C@@H](Cc2c[nH]cn2)C(=O)N[C@@H](CCC(N)=O)C(=O)N2C[C@H](O)C[C@H]2C(=O)N[C@@H](Cc2c[nH]c3ccccc23)C(=O)N[C@@H](C)C(=O)N[C@@H](Cc2cn(CC(=O)O)c3ccccc23)C(=O)N1C` [Example 9056] returned an IC50 (range classes) of 1 to 9.9 nM.

As for `CCCC[C@H]1C(=O)N(C)[C@@H](CCCC)C(=O)N[C@@H](CCC(=O)O)C(=O)N[C@H](C(N)=O)CNCC(=O)N[C@@H](Cc2ccc(F)cc2)C(=O)N2CCCC[C@H]2C(=O)N[C@@H](CC(N)=O)C(=O)N2CCC[C@H]2C(=O)N[C@@H](Cc2c[nH]cn2)C(=O)N[C@@H](CC(=O)O)C(=O)N2C[C@H](O)C[C@H]2C(=O)N[C@@H](Cc2c[nH]c3ccccc23)C(=O)N[C@@H](C)C(=O)N[C@@H](Cc2cn(CC(=O)O)c3ccccc23)C(=O)N1C` [Example 9057], the IC50 (range classes) is 1 to 9.9 nM.

With `CCCC[C@H]1C(=O)N(C)[C@@H](CCCC)C(=O)N[C@@H](CCC(=O)O)C(=O)N[C@H](C(N)=O)CNCC(=O)N[C@@H](Cc2ccc(F)cc2)C(=O)N2CCCC[C@H]2C(=O)N[C@@H](CC(N)=O)C(=O)N2CCC[C@H]2C(=O)N[C@@H](Cc2c[nH]cn2)C(=O)N[C@@H](CCC(=O)O)C(=O)N2C[C@H](O)C[C@H]2C(=O)N[C@@H](Cc2c[nH]c3ccccc23)C(=O)N[C@@H](C)C(=O)N[C@@H](Cc2cn(CC(=O)O)c3ccccc23)C(=O)N1C` [Example 9058], the IC50 (range classes) was in the range of 1 to 9.9 nM.

In the case of `CCCC[C@H]1C(=O)N(C)[C@@H](CCCC)C(=O)N[C@@H](CCC(=O)O)C(=O)N[C@H](C(N)=O)CNCC(=O)N[C@@H](Cc2ccc(F)cc2)C(=O)N2CCCC[C@H]2C(=O)N[C@@H](CC(N)=O)C(=O)N2CCC[C@H]2C(=O)N[C@@H](Cc2c[nH]cn2)C(=O)N[C@@H](CCC(N)=O)C(=O)N2C[C@H](O)C[C@H]2C(=O)N[C@@H](Cc2c[nH]c3ccccc23)C(=O)N[C@@H](C)C(=O)N[C@@H](Cc2cn(CC(=O)O)c3ccccc23)C(=O)N1C` [Example 9059], the IC50 (range classes) was 1 to 9.9 nM.

The molecule `CCCC[C@H]1C(=O)N(C)[C@@H](CCCC)C(=O)NC(CC(C)C)C(=O)N[C@H](C(=O)NCC(N)=O)CNCC(=O)N[C@@H](Cc2ccc(O)cc2)C(=O)N(C)[C@@H](C)C(=O)N[C@@H](CC(N)=O)C(=O)N2CCC[C@H]2C(=O)N[C@@H](CC(N)=O)C(=O)N[C@@H](CC(C)C)C(=O)N2C[C@H](O)C[C@H]2C(=O)N[C@@H](Cc2c[nH]c3ccccc23)C(=O)N[C@@H](CC(N)=O)C(=O)N[C@@H](Cc2c[nH]c3ccccc23)C(=O)N1C` (stereo partly drawn) [Example 10001] came in with an IC50 (range classes) of 1 to 9.9 nM.

With `CCCC[C@H]1C(=O)N(C)[C@@H](CCCC)C(=O)NC(CC(C)C)C(=O)N[C@H](C(=O)NCC(N)=O)CNCC(=O)N[C@@H](Cc2ccc(O)cc2)C(=O)N(C)[C@@H](C)C(=O)N[C@@H](CC(N)=O)C(=O)N2CCC[C@H]2C(=O)N[C@@H](CC(N)=O)C(=O)N[C@@H](CC(C)C)C(=O)N2CCC[C@H]2C(=O)N[C@@H](Cc2c[nH]c3ccccc23)C(=O)N[C@@H](CC(N)=O)C(=O)N[C@@H](Cc2c[nH]c3ccccc23)C(=O)N1C` (stereo partly drawn) [Example 10002], under “range classes”, the IC50 fell in the range of 10 to 99 nM.

Take `CCCC[C@H]1C(=O)N(C)[C@@H](CCCC)C(=O)NC(CC(C)C)C(=O)N[C@H](C(=O)NCC(N)=O)CNCC(=O)N[C@@H](Cc2ccc(O)cc2)C(=O)N(C)[C@@H](C)C(=O)N[C@@H](CC(N)=O)C(=O)N2CCC[C@H]2C(=O)N[C@@H](Cc2cnc[nH]2)C(=O)N[C@@H](CC(C)C)C(=O)N2CCC[C@H]2C(=O)N[C@@H](Cc2c[nH]c3ccccc23)C(=O)N[C@@H](CC(N)=O)C(=O)N[C@@H](Cc2c[nH]c3ccccc23)C(=O)N1C` (stereo partly drawn) [Example 10003]: the IC50 (range classes) lay within 1 to 9.9 nM.

In the case of `CCCC[C@H]1C(=O)N(C)[C@@H](CCCC)C(=O)N[C@@H](CC(C)C)C(=O)N[C@H](C(=O)NCC(N)=O)CNCC(=O)N[C@@H](Cc2ccc(O)cc2)C(=O)N(C)[C@@H](C)C(=O)N[C@@H](CC(N)=O)C(=O)N2CCC[C@H]2C(=O)N[C@@H](Cc2cnc[nH]2)C(=O)N[C@@H](CCC(N)=O)C(=O)N2C[C@H](O)C[C@H]2C(=O)N[C@@H](Cc2c[nH]c3ccccc23)C(=O)N[C@@H](CO)C(=O)N[C@@H](Cc2c[nH]c3ccccc23)C(=O)N1C` [Example 10004], the half-maximal inhibitory concentration (IC50) (range classes) was 1 to 9.9 nM.

Regarding `C=C(C)C[C@@H]1NC(=O)[C@H](C)N(C)C(=O)[C@H](Cc2ccccc2)NC(=O)CNC[C@@H](C(=O)NCC(N)=O)NC(=O)[C@H](CC(C)C)NC(=O)[C@H](CCCC)N(C)C(=O)[C@H](CCCC)N(C)C(=O)[C@H](Cc2c[nH]c3ccccc23)NC(=O)[C@H](CC(C)C)NC(=O)[C@H](Cc2c[nH]c3ccccc23)NC(=O)[C@@H]2CCCN2C(=O)[C@H](CC(C)C)NC(=O)[C@H](CC(C)C)NC(=O)[C@@H]2CCCN2C1=O` [Example 10005], the IC50 (numeric values) is 10000 nM.

In turn, `CCCC[C@H]1C(=O)N(C)[C@@H](CCCC)C(=O)N[C@@H](CC(C)C)C(=O)N[C@H](C(=O)NCC(N)=O)CNCC(=O)N[C@@H](Cc2ccc(O)cc2)C(=O)N(C)[C@@H](C)C(=O)N[C@@H](CC(N)=O)C(=O)N2CCC[C@H]2C(=O)N[C@@H](Cc2cnc[nH]2)C(=O)N[C@@H](CC(C)C)C(=O)N2CCC[C@H]2C(=O)N[C@@H](Cc2c[nH]c3ccccc23)C(=O)N[C@@H](CO)C(=O)N[C@@H](Cc2cn(CC(=O)O)c3ccccc23)C(=O)N1C` [Example 10006] yielded an IC50 (range classes) of 10 to 99 nM.

Molecule `CCCC[C@H]1C(=O)N(C)[C@@H](CCCC)C(=O)N[C@@H](CC(C)C)C(=O)N[C@H](C(=O)NCC(N)=O)CNCC(=O)N[C@@H](Cc2ccc(O)cc2)C(=O)N(C)[C@@H](C)C(=O)N[C@@H](CC(N)=O)C(=O)N2CCC[C@H]2C(=O)N[C@@H](Cc2cnc[nH]2)C(=O)N[C@@H](CC(C)C)C(=O)N2C[C@H](O)C[C@H]2C(=O)N[C@@H](Cc2c[nH]c3ccccc23)C(=O)N[C@@H](CO)C(=O)N[C@@H](Cc2cn(CC(=O)O)c3ccccc23)C(=O)N1C` [Example 10007] showed an IC50 (range classes) of 1 to 9.9 nM.

Under “range classes”, `CCCC[C@H]1C(=O)N(C)[C@@H](CCCC)C(=O)N[C@@H](CC(C)C)C(=O)N[C@H](C(=O)NCC(N)=O)CNCC(=O)N[C@@H](Cc2ccc(O)cc2)C(=O)N(C)[C@@H](C)C(=O)N[C@@H](CC(N)=O)C(=O)N2CCC[C@H]2C(=O)N[C@@H](Cc2cnc[nH]2)C(=O)N[C@@H](CCC(N)=O)C(=O)N2C[C@H](O)C[C@H]2C(=O)N[C@@H](Cc2c[nH]c3ccccc23)C(=O)N[C@@H](CO)C(=O)N[C@@H](Cc2cn(CC(=O)O)c3ccccc23)C(=O)N1C` [Example 10008] registered an IC50 of 1 to 9.9 nM.

`CCCC[C@H]1C(=O)N(C)[C@@H](CCCC)C(=O)N[C@@H](CC(C)C)C(=O)N[C@H](C(=O)NCC(N)=O)CCNCC(=O)N[C@@H](Cc2ccccc2)C(=O)N(C)[C@@H](C)C(=O)N[C@@H](CC(C)C)C(=O)N2CCC[C@H]2C(=O)N[C@@H](CC(C)C)C(=O)N[C@@H](CC(C)C)C(=O)N2CCC[C@H]2C(=O)N[C@@H](Cc2c[nH]c3ccccc23)C(=O)N[C@@H](CC(C)C)C(=O)N[C@@H](Cc2c[nH]c3ccccc23)C(=O)N1C` [Example 10009] gave an IC50 (range classes) of 100 to 10000 nM.

Take `CCCC[C@H]1C(=O)N(C)[C@@H](CCCC)C(=O)N[C@@H](CC(C)C)C(=O)N[C@H](C(=O)NCC(N)=O)CCCNCC(=O)N[C@@H](Cc2ccccc2)C(=O)N(C)[C@@H](C)C(=O)N[C@@H](CC(C)C)C(=O)N2CCC[C@H]2C(=O)N[C@@H](CC(C)C)C(=O)N[C@@H](CC(C)C)C(=O)N2CCC[C@H]2C(=O)N[C@@H](Cc2c[nH]c3ccccc23)C(=O)N[C@@H](CC(C)C)C(=O)N[C@@H](Cc2c[nH]c3ccccc23)C(=O)N1C` [Example 10010]: the IC50 (range classes) fell in the range of 100 to 10000 nM.

For the origin of these results see patent publication US9732119B2, “Immunomodulators” (BRISTOL-MYERS SQUIBB COMPANY, priority 2014, dated 2017).
